Assay results: ChEMBL document CHEMBL2203042, “Novel bivalent ligands for D2/D3 dopamine receptors: Significant co-operative gain in D2 affinity and potency” (ACS Med Chem Lett, 2012)

Assays:
D(3) dopamine receptor = D(3) dopamine receptor (Rattus norvegicus, UniProt P19020); assay: Displacement of [3H]spiperone from rat cloned dopamine D3 receptor expressed in HEK-293 cells by competition binding assay; assay type: cell-based, HEK293
D(2) dopamine receptor = D(2) dopamine receptor (Rattus norvegicus, UniProt P61169); assay: Displacement of [3H]spiperone from rat cloned dopamine D2L receptor expressed in HEK-293 cells by competition binding assay; assay type: cell-based, HEK293
Chain of D(2) dopamine receptor (P61169 whole entry): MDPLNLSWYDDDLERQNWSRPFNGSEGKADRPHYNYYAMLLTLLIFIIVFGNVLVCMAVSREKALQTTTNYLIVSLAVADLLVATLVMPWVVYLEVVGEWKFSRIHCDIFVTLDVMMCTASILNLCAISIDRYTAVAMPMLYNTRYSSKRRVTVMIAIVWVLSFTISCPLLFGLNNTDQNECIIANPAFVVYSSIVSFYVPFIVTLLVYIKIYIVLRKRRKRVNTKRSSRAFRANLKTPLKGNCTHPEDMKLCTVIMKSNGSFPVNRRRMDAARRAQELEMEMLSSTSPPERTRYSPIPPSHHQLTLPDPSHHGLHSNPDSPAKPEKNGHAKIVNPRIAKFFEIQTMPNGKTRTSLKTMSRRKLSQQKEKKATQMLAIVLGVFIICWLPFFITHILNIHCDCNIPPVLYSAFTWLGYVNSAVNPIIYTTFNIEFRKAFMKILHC

Rattus norvegicus = species: Rattus norvegicus; assay: Selectivity ratio of Ki for rat cloned dopamine D2L receptor to Ki for rat cloned dopamine D3 receptor

Chain of D(3) dopamine receptor (P19020 whole entry): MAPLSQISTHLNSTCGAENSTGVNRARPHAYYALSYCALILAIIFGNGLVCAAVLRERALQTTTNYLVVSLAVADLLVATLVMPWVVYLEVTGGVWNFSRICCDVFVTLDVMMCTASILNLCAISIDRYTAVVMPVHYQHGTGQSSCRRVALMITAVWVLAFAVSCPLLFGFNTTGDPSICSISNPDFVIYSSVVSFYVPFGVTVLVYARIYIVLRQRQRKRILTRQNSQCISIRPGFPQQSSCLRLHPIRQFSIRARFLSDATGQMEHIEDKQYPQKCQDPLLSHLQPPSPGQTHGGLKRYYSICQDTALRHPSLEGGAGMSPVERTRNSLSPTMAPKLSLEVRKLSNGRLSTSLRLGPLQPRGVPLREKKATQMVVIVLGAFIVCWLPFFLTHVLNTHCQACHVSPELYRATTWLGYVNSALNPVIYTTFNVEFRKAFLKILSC

| Ki (D(3) dopamine receptor) | Ki (D(2) dopamine receptor) | Ratio Ki (Rattus norvegicus) | SMILES |
| --- | --- | --- | --- |
| 0.004 µM | 0.07 µM | 17 | CCCN(CCCCN(CCC)[C@H]1CCc2c(O)cccc2C1)[C@H]1CCc2c(O)cccc2C1 |
| 0.031 µM | 0.055 µM | 1.7 | CCCN(CCCCCCCCCCCCCCN(CCC)[C@H]1CCc2c(O)cccc2C1)[C@H]1CCc2c(O)cccc2C1 |
| 0.01 µM | 0.011 µM | 1 | CCCN(CCCCCCCCCCCCN(CCC)[C@H]1CCc2c(O)cccc2C1)[C@H]1CCc2c(O)cccc2C1 |
| 0.0022 µM | 0.0059 µM | 2.7 | CCCN(CCCCCCN(CCC)[C@H]1CCc2c(O)cccc2C1)[C@H]1CCc2c(O)cccc2C1 |
| 0.0011 µM | 0.0039 µM | 3.6 | CCCN(CCCCCCCN(CCC)[C@H]1CCc2c(O)cccc2C1)[C@H]1CCc2c(O)cccc2C1 |
| 0.023 µM | 0.14 µM | 6.1 | CCCN(CCCCCCCCCc1ccccc1)[C@H]1CCc2c(O)cccc2C1 |
| 0.0011 µM | 0.016 µM | 14 | CCCN(CCN(CCC)[C@H]1CCc2c(O)cccc2C1)[C@H]1CCc2c(O)cccc2C1 |
| 0.0036 µM | 0.075 µM | 21 | CCCN(CCCCCN(CCC)[C@H]1CCc2c(O)cccc2C1)[C@H]1CCc2c(O)cccc2C1 |

| SMILES | Ki (D(3) dopamine receptor) | Ki (D(2) dopamine receptor) | Ratio Ki (Rattus norvegicus) |
| --- | --- | --- | --- |
| CCCCCCCCCN(CCC)[C@H]1CCc2c(O)cccc2C1 | 0.0073 µM | 0.069 µM | 9.4 |
